The record followed here is US6348483B1, “Use of derivatives of methylene-bis-oxazolidine and compositions obtained thereby” (Air Liquide Sante (International), priority 1998, dated 2002).

The subject of this assay is Chlorella fusca (CF). In words: Algistatic finish (SM 023) of pure acrylate house paint. Type of assay: cell-based. Conditions: without and with stress due to leaching; active compound concentration of 0.2% by weight based on house paint and test substance. How it is done: In separate batches, the test concentrations of the active compounds/products were incorporated into the house paint, and the fungicidal and/or algistatic finish was determined using the stated test methods.
Incorporation and testing were carried out according to the methods SM 022 and SM 023 below.
This laboratory method was employed for determining the resistance of house coatings to colonization by algae. For this method, house coatings on standardized paper are used as test substrate and Chlorella fusca is used as test alga. It is furthermore possible to use pure cultures of other algae species of practical relevance.
The experiments were carried out in Petri dishes on agar nutrient media.
50 g of the material to be finished were, in separate batches, mixed with various concentrations of the algicide to be examined and homogenized for 3-5 min using a basket stirrer.
Paper carrier materials having the dimensions 90×270 mm (Schleicher & Schüll No. 2589 B/X 24078) were coated with the test material. The paint and/or render samples were coated to a wet-layer thickness of 250 μm by knife coating. […] In the case of renders, the layer thickness depends, as in practice, on the particle size. The coated carrier materials, hereinbelow referred to as test bodies, were subsequently dried in a horizontal position for five days.
[…] The cross section of the container for the watering in the direction of flow was 1000±500 cm^2.
From the pretreated test bodies, three sample bodies having a diameter of 5 cm were punched out and sterilized in a Co^60 source using at least 10 kGy.
Aseptically, the samples were placed onto the algae nutrient media, and the centre of the sample was inoculated with 5 ml of each algae suspension.
The mixture of the algae suspensions was spread on the surface using a Drigalski spatula or an offset sterile glass rod.
During the growth phase at 22±2° C., the coated samples in the Petri dishes were irradiated with light of an intensity of about 1000 Lux (customary fluorescent tubes, type D 67 daylight). A cycle of in each case 12 hours of irradiation and 12 hours of storage in the dark was used.
The colonization of the samples by algae was examined and evaluated after two weeks. Evaluation was carried out visually. The evaluation of the samples was based on the following evaluation scale:
No growth of algae on the test bodies
Formation of an inhibitory zone or growth of algae on the nutrient medium up to the edge of the test bodies
Visible colonization of the test body by algae

As to `COC(=O)Nc1nc2ccccc2[nH]1` [carbendazim, Methyl 1H-benzimidazol-2-ylcarbamate], the “Algicidal action (in words)” value is recorded as “no algicidal action”.
